Results from patent US10098894B2, “Transdermal cream” (TherapeuticsMD, Inc., priority 2014, dated 2018).
In brackets after ≈: the same amount, converted by molar mass. Read-outs that look alike come from different tables or passages of the source. One block for each compound: values may come before it.

Assays:
[1] = Progesterone solubility study in different solvent systems; assay type: physicochemical; conditions: thermodynamic from solid, room temperature, visual
Description: Solubility of progesterone was determined on a visual basis by adding progesterone incrementally to a certain quantity of solvent at room temperature until a supersaturated solution was formed.

[2] = test system: endometrium and vagina in ovariectomized rats; assay: Estradiol-induced endometrium proliferation in ovariectomized rats (uterine weight, histology, histomorphometry); assay type: in vivo, rat; conditions: for Uterine weight compared to estradiol-only treatment group: Days 4-8, with estradiol
Description: Thirty-two 8-week-old, female, Crl:CD® rats underwent ovariectomy 2 weeks prior to the start of the study. Rats were randomly assigned to 4 groups of 8 rats each. Three of the groups received 3 μg/kg/day estradiol, subcutaneously (SC), for 8 days as well as a placebo cream, 10 mg/kg/day progesterone, SC, or 3.125 mg/day progesterone transdermally beginning on Day 4. The fourth group received saline, SC for 8 days and placebo cream beginning on Day 4. Two hours after the final dose on Day 8, the rats were humanely euthanized, uterine weights were measured, and the vagina and distal portions of the uterine horns were fixed and processed for histology and computer-aided morphometry. Study parameters are outlined in Table 22.

[3] = Exposure, tissue distribution and metabolite profile (progesterone, ALLO, ALLO-sulfate in plasma, salivary gland, uterus) in ovariectomized rats; assay type: in vivo; conditions: for Kp at 2 h: female, Crl:CD, uterus/plasma, read-out: Ratio of progesterone levels in the uterus to plasma; for Mean progesterone level in plasma / Mean progesterone level in salivary gland / Mean progesterone level in uterus: 2 hours after final dose Day 8
Description: Thirty-two 8-week-old, female, Crl:CD® rats underwent ovariectomy 2 weeks prior to study start. […] Plasma and tissue homogenates were analyzed for progesterone, ALLO, and ALLO-sulfate using LC-MS/MS.

[4] = Progesterone solubility study in different solvent systems; assay type: physicochemical; conditions: oil or lipid, thermodynamic from solid; in CAPRYOL 90; solubility determined by HPLC

solubility ([1]; aqueous with cosolvent or surfactant or cyclodextrin, in 5% SLS): 6.6 mg/mL (≈ 21 mM)
solubility ([1]; oil or lipid, in CAPRYOL PGMC): 82 mg/mL (≈ 261 mM)
solubility ([1]; oil or lipid, in GLYCEROX 767): 22.2 mg/mL (≈ 70.6 mM)
solubility ([1]; oil or lipid, in LABRAFAC PG): 41 mg/mL (≈ 130 mM)
solubility ([1]; oil or lipid, in LAUROGLYCOL 90): 90.2 mg/mL (≈ 287 mM)
solubility ([1]; oil or lipid, in LAUROGLYCOL FCC): 60 mg/mL (≈ 191 mM)
solubility ([1]; oil or lipid, in MIGLYOL 812 + D-L α Tocopherol Care (85:15)): 38.2 mg/mL
solubility ([1]; oil or lipid, in MIGLYOL 812 + D-L α Tocopherol Care (95:5)): 20.1 mg/mL
solubility ([1]; oil or lipid, in MIGLYOL 812 + LABRAFAC PG (50:50)): 25.7 mg/mL
solubility ([1]; oil or lipid, in MIGLYOL 812 + LAUROGLYCOL 90 (25:75)): 47 mg/mL
solubility ([1]; oil or lipid, in MIGLYOL 812 + LAUROGLYCOL 90 (50:50)): 58.9 mg/mL
solubility ([1]; oil or lipid, in MIGLYOL 812 + TRANSCUTOL (92.5:7.5)): 40.2 mg/mL
solubility ([1]; oil or lipid, in MIGLYOL 812 + TRANSCUTOL (95:5)): 40.5 mg/mL
solubility ([1]; oil or lipid, in MIGLYOL 812 + Vitamin E TPGS (91:9)): 45.2 mg/mL
solubility ([1]; oil or lipid, in MIGLYOL 812): 25 mg/mL (≈ 79.5 mM)
solubility ([1]; oil or lipid, in MIGLYOL 829): 41.3 mg/mL (≈ 131 mM)
solubility ([1]; oil or lipid, in MIGLYOL 840): 41.7 mg/mL (≈ 133 mM)
solubility ([1]; oil or lipid, in Oleic Acid): 62.2 mg/mL (≈ 198 mM)
solubility ([1]; oil or lipid, in Oleyl Alcohol): 41.2 mg/mL (≈ 131 mM)
solubility ([1]; organic solvent or mixture, in Absolute Alcohol): 57 mg/mL (≈ 181 mM)
solubility ([1]; organic solvent or mixture, in Dimethyl Isosorbide): 92 mg/mL (≈ 293 mM)
solubility ([1]; organic solvent or mixture, in Propylene Glycol): 10.5 mg/mL (≈ 33.4 mM)
solubility ([1]; organic solvent or mixture, in TRANSCUTOL): 60.3 mg/mL (≈ 192 mM)
solubility ([1]; organic solvent or mixture, in d-Limonene + TRANSCUTOL (25:75)): 95.6 mg/mL
solubility ([1]; organic solvent or mixture, in d-Limonene + TRANSCUTOL (40:60)): 102 mg/mL
solubility ([1]; organic solvent or mixture, in d-Limonene + TRANSCUTOL (50:50)): 100 mg/mL
solubility ([1]; organic solvent or mixture, in d-Limonene): 204 mg/mL (≈ 649 mM)
Kp at 2 h ([3]; 10 mg/kg/day, rat, SC route): 7.3
Kp at 2 h ([3]; topical, 3.13 mg/rat/day, transdermal route): 12
Mean progesterone level in plasma ([3]; rat, SC administration): 5.4 ng/mL/mg dose
Mean progesterone level in salivary gland ([3]; rat, SC administration): 5.9 ng/mL/mg dose
Mean progesterone level in uterus ([3]; rat, SC administration): 39 ng/mL/mg dose
Levels of ALLO in the plasma, comparison of both routes of administration ([3]; rat, SC vs topical): similar
Sum of plasma levels of ALLO and ALLO-sulfate relative to plasma level of progesterone ([3]; rat, after topical dosing): equivalent
Mean tissue levels of ALLO and ALLO-sulfate, SC administration compared to topical administration ([3]; rat, all instances): higher
Mean progesterone level in plasma ([3]; rat, topical administration (Table 16 formulation)): 2.0 ng/mL/mg dose
Mean progesterone level in salivary gland ([3]; rat, topical administration): 10 ng/mL/mg dose
Mean progesterone level in uterus ([3]; rat, topical administration): 24 ng/mL/mg dose
solubility [4]: 112 mg/mL (≈ 355 mM)
Compound: CC(=O)[C@H]1CC[C@H]2[C@@H]3CCC4=CC(=O)CC[C@]4(C)[C@H]3CC[C@]12C [progesterone, pregn-4-ene-3,20-dione]
Endometrial gland density, transdermal as compared to SC progesterone [2]: significant increase
Uterine weight compared to estradiol-only treatment group ([2]; progesterone 3.125 mg/day transdermally (formulation of Table 16)): pronounced reduction
Uterine weight compared to estradiol-only treatment group ([2]; progesterone 10 mg/kg/day SC): pronounced reduction
Endometrial gland density compared to unopposed estradiol ([2]; progesterone SC): significant increase
Luminal epithelial cell thickness compared to unopposed estradiol ([2]; progesterone SC): significant reduction
Estrogen-specific cellular aspects in uterus and vagina (histology) ([2]; progesterone SC with estradiol): not detected
Endometrial gland density compared to unopposed estradiol ([2]; progesterone transdermally): significant increase
Luminal epithelial cell thickness compared to unopposed estradiol ([2]; progesterone transdermally): significant reduction
Estrogen-specific cellular aspects in uterus and vagina (histology) ([2]; progesterone transdermally with estradiol): not detected

Compound: C[C@]12CC[C@@H]3c4ccc(O)cc4CC[C@H]3[C@@H]1CC[C@@H]2O [estradiol, (17β)-estra-1,3,5(10)-triene-3,17-diol]
Effect of unopposed estradiol treatment on the uterus (organ weight, histology) ([2]; 3 μg/kg/day SC, 8 days): hypertrophy
